Laboratory results from patent EP3958860B1, “COMPOUNDS EXHIBITING ANTI-TUBERCULOSIS ACTIVITY” (priority 2019, dated 2021).
Converted amounts (≈) assume the structure as drawn. Read-outs that look alike come from different tables or passages of the source.

What was measured:
[1] = In vivo animal toxicity tests (maximum tolerable dose)
[2] = test system: Mycobacterium tuberculosis H37Rv; experiment: MIC determination by MABA (Microplate Alamar Blue Assay); type: cell-based; conditions: for MIC: Mycobacterium tuberculosis, H37RV
Procedure: Following this, to determine the actual minimum inhibitory concentration in the second phase, both of the compounds were retested to the lowest concentration of Mycobacterium tuberculosis H37Rv with the technique of MABA (Microplate Alamar Blue Assay) and MIC value for the 1st compound was determined <0.03 µg/ml while this value was determined <0.05 µg/ml for the second compound. The result of Rifampicin subjected to the assay under the same conditions was determined as 0.25 µg/ml.

[3] = type: physicochemical
Procedure: In the assays carried out with the solubility enhancing Polysorbate 80 (Tween 80) in order to ensure water solubility of Compound 2, firstly solubility of the compound was determined in an aqueous solution prepared with a mass ratio of 1:6 (compound: Tween 80) and then the same mass ratio was studied with different solvents (ethanol, methanol) and different drying methods (evaporation, evaporation+lyophilization). In light of the results of solubility obtained and presented below Table 2, it has determined that the solution of the compound that was prepared with the Tween 80 in methanol medium had the highest solubility rate after evaporation.
Details of the method where high solubility was determined with Polysorbate 80 (Tween 80) are presented below: After the substances at the mass ratio of 1:6 (compound: Tween 80) were dissolved in 7 ml methanol, they were evaporated in a rotating evaporator at 175 RPM, at a temperature of 40°C and a vacuum of […]. The thin film obtained was firstly blended with vortex adding 3 ml water, and then was left to rest for 15 minutes in an ultrasonic bath. The mixture obtained was filtered out with a plastic filter having a pore diameter of 0.2 µm and afterward solubility ratio of the mixture was determined with HPLC.

[4] = type: physicochemical; remark: listed apart in the source
Procedure: To ensure that Compound 2 is dissolved in water, in the assays carried out with solubility enhancing cyclodextrin molecules, different cyclodextrins [hydroxypropyl beta-cyclodextrin (HP-β-CD), sulfobutyl ether beta-cyclodextrin (SBE-β-CD)], different methods [kneading, evaporation, lyophilization], different solvents (dimethyl sulfoxide, methanol, ethanol) were studied at the molar ratio of 1: 1 compound: cyclodextrin.

Mycobacterium avium = experiment: MIC on Mycobacterium avium with BACTEC; type: cell-based; conditions: for MIC: Mycobacterium avium, BACTEC
[5] = test system: Mycobacterium tuberculosis H37Rv (ATCC27294); type: cell-based
[6] = first value of the cell (outside parentheses), MABA, read-out: MIC H37Rv
[7] = first value of the cell (outside parentheses), MABA
[8] = value printed in parentheses after the bound <12.5, read-out: MIC H37Rv (µg/ml), value in parentheses
[9] = read-out: MIC H37Rv (µg/ml), value in parentheses

With `CC(=NNC(N)=S)c1ccc2c(c1)CCC2` [Compound 1, 2-[1-(2,3-dihydro-1H-inden-5-yl)ethylidene]hydrazinecarbothioamide] the maximum tolerable dose [1] was 1000 mg/kg, the MIC [2, 6] was under 0.03 µg/mL and the “MIC H37Rv” value [2, 7] was under 0.03 µg/mL.
For `COc1ccc(O)c(-c2csc(NN=C(C)c3ccc4c(c3)CCC4)n2)c1` [Compound 2, 2-[2-(2-(1-(2,3-dihydro-1H-inden-5-yl)ethylidene)hydrazinyl)thiazole-4-yl]-4-methoxy phenol], the “Solubility ratio in the aqueous solution” value [3] was “Solubility ratio in the aqueous solution prepared with the mass ratio of 1:6 (compound: Tween 80) 42,44 µg/ml”, the “The ratio of water solubility” value [3] was 58,80 µg/ml and the “The ratio of water solubility” value ([3]; 15 min) was 70,05 µg/ml. The increase in solubility [4] was “any significant increase in solubility was not observed”, the “dissolved in water at the ratio of” value ([4]; HP-β-CD, molar ratio 1:1, evaporation method within ethanol) was 0.59 µg/mL and the MIC [2, 6] was under 0.05 µg/mL. For the same compound, the “MIC H37Rv” value [2, 7] was under 0.05 µg/mL, the “activity on Mycobacterium avium” value (Mycobacterium avium) was “exhibited activity” and the MIC (Mycobacterium avium) was 0.39 µg/mL (≈ 1.03 µM).
`CC(=NNc1nc(-c2ccc(Cl)cc2)cs1)c1ccc2c(c1)CCC2` [Compound 3, 4-(4-Chlorophenyl)-2-[2-(1-(2,3-dihydro-1H-inden-5yl)ethylidene)hydrazinyl] thiazole] gave an MIC [2, 6] of under 12.5 µg/mL, an MIC [2, 8] of 0.39 µg/mL (≈ 1.06 µM) and an MIC (Mycobacterium avium) of 0.78 µg/mL (≈ 2.12 µM).
In the case of `CC(=NNc1nc(-c2ccccc2O)cs1)c1ccc2c(c1)CCC2` [Compound 4, 2-[2-(2-(1-(2,3-Dihydro-1H-inden-5-yl)ethylidene)hydrazinyl)thiazol-4-yl]phenol], the MIC [2, 6] is reported as under 12.5 µg/mL, the MIC [2, 8] is reported as 0.2 µg/mL (≈ 0.572 µM) and the MIC (Mycobacterium avium) is reported as 0.78 µg/mL (≈ 2.23 µM).
In the case of `CC(=NNc1nc(-c2cc(Cl)ccc2O)cs1)c1ccc2c(c1)CCC2` [Compound 5, 4-Chloro-2-[2-(2-(1-(2,3-dihydro-1H-inden-5-yl)ethylidene)hydrazinyl)thiazol-4-yl]phenol], the MIC [2, 6] is reported as under 12.5 µg/mL.
`CC(=NNc1nc(-c2ccc(Br)cc2)cs1)c1ccc2c(c1)CCC2` [Compound 6, 4-(4-Bromophenyl)-2-[2-(1-(2,3-dihydro-1H-inden-5-yl)ethylidene)hydrazinyl] thiazole] showed an MIC [2, 6] of under 12.5 µg/mL, an MIC [2, 8] of 0.39 µg/mL (≈ 0.946 µM) and an MIC (Mycobacterium avium) of 1.56 µg/mL (≈ 3.78 µM).
With `C/C(=N\Nc1nc(-c2ccc(C)cc2)cs1)c1ccc2c(c1)CCC2` [Compound 7] the MIC ([2]; read-out: MIC H37Rv (µg/ml)) was under 12.5 µg/mL, the MIC [2, 9] was 0.2 µg/mL (≈ 0.576 µM) and the “Primary screening % inhibition” value [5] was 94%. The MIC (Mycobacterium avium) was 0.2 µg/mL (≈ 0.576 µM).
With `COc1ccc(-c2csc(NN=C(C)c3ccc4c(c3)CCC4)n2)c(O)c1` [Compound 8, 2-[2-(2-(1-(2,3-Dihydro-1H-inden-5-yl)ethylidene)hydrazinyl)thiazol-4-yl]-5-methoxyphenol] the MIC [2, 6] was under 12.5 µg/mL.
`CC(=NNc1nc(-c2ccc(C)cc2O)cs1)c1ccc2c(c1)CCC2` [Compound 9, 2-[2-(2-(1-(2,3-Dihydro-1H-inden-5-yl)ethylidene)hydrazinyl)thiazol-4-yl]-5-methylphenol] gave an MIC [2, 6] of under 12.5 µg/mL, an MIC [2, 8] of 0.05 µg/mL (≈ 0.138 µM) and an MIC (Mycobacterium avium) of 0.1 µg/mL (≈ 0.275 µM).
For `C/C(=N\Nc1nc(-c2ccc([N+](=O)[O-])cc2)cs1)c1ccc2c(c1)CCC2` [Compound 10], the MIC ([2]; read-out: MIC H37Rv (µg/ml)) was under 12.5 µg/mL, the MIC [2, 9] was 1.56 µg/mL (≈ 4.12 µM) and the “Primary screening % inhibition” value [5] was 93%. For the same compound, the MIC (Mycobacterium avium) was 3.13 µg/mL (≈ 8.27 µM).
For `CC(=NNc1nc(-c2ccccc2)cs1)c1ccc2c(c1)CCC2` [Compound 11, 2-[2-(1-(2,3-Dihydro-1H-inden-5-yl)ethylidene)hydrazinyl]-4-phenylthiazole], the MIC ([2]; read-out: MIC H37Rv (µg/ml)) was under 12.5 µg/mL, the MIC [2, 9] was 3.13 µg/mL (≈ 9.39 µM) and the MIC (Mycobacterium avium) was 12.5 µg/mL (≈ 37.5 µM).
Compound `CO[C@H]1/C=C/O[C@@]2(C)Oc3c(C)c(O)c4c(O)c(c(/C=N/N5CCN(C)CC5)c(O)c4c3C2=O)NC(=O)/C(C)=C\C=C\[C@H](C)[C@H](O)[C@@H](C)[C@@H](O)[C@@H](C)[C@H](OC(C)=O)[C@@H]1C` [Rifampicin, reference compound] has an MIC [2, 6] of 0.25 µg/mL (≈ 0.304 µM).
